Experiment [1] addresses Human immunodeficiency virus type 1 protease (Human immunodeficiency virus 1, UniProt Q72874, A71V/G73S/I84V/L10I/L63P/L90M). In words: Inhibition of multidrug resistant HIV-1 protease L10I/L63P/A71V/G73S/I84V/L90M mutant using fluorogenic peptide substrate incubated for 30 mins prior to substrate addition measured after 10 mins by FRET assay.
For a further experiment, the target named is Protease (Human immunodeficiency virus 1, UniProt Q9YQ12). In words: Inhibition of wild-type HIV-1 protease using fluorogenic peptide substrate incubated for 30 mins prior to substrate addition measured after 10 mins by FRET assay.
Protease, sequence (Q9YQ12 whole entry): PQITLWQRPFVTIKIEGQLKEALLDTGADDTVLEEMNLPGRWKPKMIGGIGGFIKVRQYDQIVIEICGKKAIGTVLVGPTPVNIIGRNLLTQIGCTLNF

Data on one compound can be found in ChEMBL document CHEMBL3392998 (J Med Chem, 2014).

pKi: −log10 of the molar value.

Human immunodeficiency virus type 1 protease, sequence (Q72874 entry or part of it A71V/G73S/I84V/L10I/L63P/L90M): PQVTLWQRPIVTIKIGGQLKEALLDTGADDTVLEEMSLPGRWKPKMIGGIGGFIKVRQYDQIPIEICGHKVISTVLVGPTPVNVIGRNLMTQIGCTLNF

In general, pKi refers to the negative decadic logarithm of the Ki, by convention in mol/L. A lower pKi goes with a large Ki. For `O=C1c2cccc([N+](=O)[O-])c2C(=O)N1c1ccc2[nH]c(=S)sc2c1`, the pKi was 4.04 in experiment [1] and 4.02 at Protease.
